According to publication PMC3170524 (Physiological research / Academia Scientiarum Bohemoslovaca, 2010):
Positions count from the first letter of the chain named.

Legend:
Experiment in all cases: whole-cell patch clamp, peak current dose-response
Assay type in all cases: cell-based
[1] = target: T1, rat P2X4R (Rattus norvegicus, UniProt P51577, C116T)
T1 sequence (P51577 1-388 C116T): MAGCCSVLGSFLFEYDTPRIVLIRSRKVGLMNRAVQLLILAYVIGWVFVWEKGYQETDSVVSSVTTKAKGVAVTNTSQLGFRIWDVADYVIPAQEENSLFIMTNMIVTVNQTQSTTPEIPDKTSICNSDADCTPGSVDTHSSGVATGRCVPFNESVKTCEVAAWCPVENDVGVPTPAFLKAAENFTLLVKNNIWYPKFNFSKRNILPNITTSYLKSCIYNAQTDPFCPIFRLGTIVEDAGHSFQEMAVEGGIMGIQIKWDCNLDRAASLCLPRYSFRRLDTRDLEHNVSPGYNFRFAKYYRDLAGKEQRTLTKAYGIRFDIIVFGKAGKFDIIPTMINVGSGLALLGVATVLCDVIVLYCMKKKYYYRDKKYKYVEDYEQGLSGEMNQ

[2] = target: T2, rat P2X4R (Rattus norvegicus, UniProt P51577, C270T)
T2 sequence (P51577 1-388 C270T): T1 sequence (P51577 1-388 C116T) with T116C, C270T

[3] = target: T3, rat P2X4R (Rattus norvegicus, UniProt P51577, C126A)
T3 sequence (P51577 1-388 C126A): T1 sequence (P51577 1-388 C116T) with T116C, C126A

[4] = target: T4, rat P2X4R (Rattus norvegicus, UniProt P51577)
T4 sequence (P51577 1-388): T1 sequence (P51577 1-388 C116T) with T116C

[5] = target: T5, rat P2X4R (Rattus norvegicus, UniProt P51577, C261A)
T5 sequence (P51577 1-388 C261A): T1 sequence (P51577 1-388 C116T) with T116C, C261A

[6] = target: T6, rat P2X4R (Rattus norvegicus, UniProt P51577, C217T)
T6 sequence (P51577 1-388 C217T): T1 sequence (P51577 1-388 C116T) with T116C, C217T

[7] = target: T7, rat P2X4R (Rattus norvegicus, UniProt P51577, C132T)
T7 sequence (P51577 1-388 C132T): T1 sequence (P51577 1-388 C116T) with T116C, C132T

EC50 [1]: 21 ± 4.1 µM
EC50 [2]: 3.4 ± 1.8 µM
EC50 [3]: 24 ± 5.6 µM
EC50 [4]: 4.6 ± 0.5 µM
EC50 [5]: 5.5 ± 1.7 µM
EC50 [6]: 7.2 ± 2.9 µM
EC50 [7]: 8.2 ± 2.1 µM
Compound: Nc1ncnc2c1ncn2[C@@H]1O[C@H](COP(=O)(O)OP(=O)(O)OP(=O)(O)O)[C@@H](O)[C@H]1O [ATP]
